The values that follow come from ChEMBL document CHEMBL5678807, “A selective jumonji H3K27 demethylase inhibitor modulates the proinflammatory macrophage response” (Nature, 2012).

As usually defined, the IC50 is the concentration that gives 50% inhibition.

Series [1] concerns the target Lysine-specific demethylase 4A (Homo sapiens, UniProt O75164). Nature of the series: Inhibition of human JmjD2a using H3K27(me3) as substrate preincubated for 10 mins followed by substrate addition and measured after 7 mins in presence of alpha-KG by RapidFire Mass Spectrometry.
For series [2], the target named is Lysine-specific demethylase 4C (Homo sapiens, UniProt Q9H3R0). Nature of the series: Inhibition of human JmjD2c using H3K27(me3) as substrate preincubated for 10 mins followed by substrate addition and measured after 7 mins in presence of alpha-KG by RapidFire Mass Spectrometry.
Lysine-specific demethylase 4C, sequence (Q9H3R0 whole entry): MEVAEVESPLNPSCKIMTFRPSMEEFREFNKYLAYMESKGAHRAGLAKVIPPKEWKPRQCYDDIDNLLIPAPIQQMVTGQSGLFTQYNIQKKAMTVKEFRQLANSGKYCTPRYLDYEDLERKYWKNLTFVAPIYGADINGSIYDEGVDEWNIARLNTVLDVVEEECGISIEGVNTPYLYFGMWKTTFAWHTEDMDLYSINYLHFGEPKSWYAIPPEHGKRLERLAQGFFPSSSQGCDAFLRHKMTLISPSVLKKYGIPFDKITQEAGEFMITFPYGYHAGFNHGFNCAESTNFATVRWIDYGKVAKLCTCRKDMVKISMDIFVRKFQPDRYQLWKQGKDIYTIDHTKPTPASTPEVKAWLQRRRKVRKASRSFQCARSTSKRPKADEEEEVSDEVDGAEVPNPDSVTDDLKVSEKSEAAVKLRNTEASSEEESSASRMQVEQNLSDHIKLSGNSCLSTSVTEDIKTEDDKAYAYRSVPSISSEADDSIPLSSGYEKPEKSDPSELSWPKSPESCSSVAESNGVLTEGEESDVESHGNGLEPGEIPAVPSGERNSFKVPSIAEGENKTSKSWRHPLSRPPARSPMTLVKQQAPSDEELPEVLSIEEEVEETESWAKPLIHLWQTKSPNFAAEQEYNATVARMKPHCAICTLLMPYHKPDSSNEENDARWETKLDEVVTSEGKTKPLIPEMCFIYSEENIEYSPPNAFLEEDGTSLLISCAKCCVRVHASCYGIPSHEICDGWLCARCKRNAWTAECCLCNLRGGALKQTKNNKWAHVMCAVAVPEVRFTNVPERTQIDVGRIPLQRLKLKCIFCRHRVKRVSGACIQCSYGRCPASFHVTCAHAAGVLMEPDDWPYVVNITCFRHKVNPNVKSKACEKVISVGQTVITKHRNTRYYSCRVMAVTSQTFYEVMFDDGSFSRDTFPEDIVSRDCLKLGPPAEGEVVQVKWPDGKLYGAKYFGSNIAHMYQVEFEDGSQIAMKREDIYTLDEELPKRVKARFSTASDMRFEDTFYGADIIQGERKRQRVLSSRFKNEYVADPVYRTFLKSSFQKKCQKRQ
Series [3] in a line: Prodrug conversion in human primary macrophage lysates assessed as formation of GSK-J2 at 30 uM measured after 1 hr by RP LC-MS/MS analysis. It counts as ADME, subcellular.
For series [4], the target named is Lysine-specific demethylase 4E (Homo sapiens, UniProt B2RXH2). Nature of the series: Inhibition of human JmjD2e using H3K27(me3) as substrate preincubated for 10 mins followed by substrate addition and measured after 7 mins in presence of alpha-KG by RapidFire Mass Spectrometry.
Lysine-specific demethylase 4E, sequence (B2RXH2 whole entry): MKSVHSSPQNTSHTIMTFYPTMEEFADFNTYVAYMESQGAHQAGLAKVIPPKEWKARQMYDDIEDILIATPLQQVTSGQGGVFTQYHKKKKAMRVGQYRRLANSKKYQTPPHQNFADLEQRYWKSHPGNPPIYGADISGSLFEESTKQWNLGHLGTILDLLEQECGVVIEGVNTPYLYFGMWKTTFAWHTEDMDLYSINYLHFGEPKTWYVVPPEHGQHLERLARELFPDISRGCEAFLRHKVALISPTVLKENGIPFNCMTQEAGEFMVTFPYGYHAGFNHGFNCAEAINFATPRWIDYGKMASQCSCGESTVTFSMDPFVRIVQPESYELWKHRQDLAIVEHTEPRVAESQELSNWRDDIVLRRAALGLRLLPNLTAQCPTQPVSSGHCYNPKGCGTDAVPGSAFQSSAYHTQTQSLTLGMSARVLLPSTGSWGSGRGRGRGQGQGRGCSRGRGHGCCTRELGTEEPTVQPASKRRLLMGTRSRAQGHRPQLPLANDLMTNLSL

Lysine-specific demethylase 4A, sequence (O75164 whole entry): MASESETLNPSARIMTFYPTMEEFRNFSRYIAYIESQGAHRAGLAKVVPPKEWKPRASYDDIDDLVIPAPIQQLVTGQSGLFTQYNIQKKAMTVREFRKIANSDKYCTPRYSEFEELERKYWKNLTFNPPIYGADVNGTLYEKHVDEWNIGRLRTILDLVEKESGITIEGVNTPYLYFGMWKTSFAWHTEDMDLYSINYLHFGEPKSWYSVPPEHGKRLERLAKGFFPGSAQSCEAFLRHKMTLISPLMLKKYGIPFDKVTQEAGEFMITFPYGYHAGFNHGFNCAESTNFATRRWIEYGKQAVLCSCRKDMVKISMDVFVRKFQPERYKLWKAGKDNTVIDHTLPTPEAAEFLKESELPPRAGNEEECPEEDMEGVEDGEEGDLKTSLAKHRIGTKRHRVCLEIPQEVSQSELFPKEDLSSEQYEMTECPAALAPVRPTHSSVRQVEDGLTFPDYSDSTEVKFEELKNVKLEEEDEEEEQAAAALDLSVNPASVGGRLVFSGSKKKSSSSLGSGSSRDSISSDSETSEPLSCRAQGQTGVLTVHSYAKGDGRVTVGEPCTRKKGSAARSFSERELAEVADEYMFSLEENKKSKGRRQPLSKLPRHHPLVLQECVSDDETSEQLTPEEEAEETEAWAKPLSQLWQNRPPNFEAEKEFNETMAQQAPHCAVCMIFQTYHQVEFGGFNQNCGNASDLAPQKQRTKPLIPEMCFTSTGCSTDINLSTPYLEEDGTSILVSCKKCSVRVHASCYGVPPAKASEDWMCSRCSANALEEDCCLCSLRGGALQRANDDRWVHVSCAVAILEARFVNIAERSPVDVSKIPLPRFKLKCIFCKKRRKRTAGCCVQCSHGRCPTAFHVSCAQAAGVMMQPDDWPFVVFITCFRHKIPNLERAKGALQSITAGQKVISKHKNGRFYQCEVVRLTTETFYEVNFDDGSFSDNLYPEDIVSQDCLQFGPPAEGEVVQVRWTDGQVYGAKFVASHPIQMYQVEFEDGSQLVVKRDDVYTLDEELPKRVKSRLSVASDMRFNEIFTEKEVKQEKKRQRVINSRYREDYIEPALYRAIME

For `O=C(O)CCNc1cc(N2CCc3ccccc3CC2)nc(-c2ccccn2)n1`, the IC50 in series [1] and in series [2] was above 100 µM throughout.

Regarding `CCOC(=O)CCNc1cc(N2CCc3ccccc3CC2)nc(-c2cccnc2)n1`, the Drug metabolism in series [3] is 17.4 µM. In the case of `O=C(O)CCNc1cc(N2CCc3ccccc3CC2)nc(-c2cccnc2)n1`, the IC50 in series [4] was above 100 µM.
